Where two headings read alike, the source gives them in different places.
Assays:
[1] = target: TRPC5 channel (Homo sapiens (Human), UniProt Q9UL62); experiment: TRPC5 calcium flux assay (Fluo-4, FLIPR) in TRPC5-HEK 293 cells; format: cell-based; conditions: for IC50: 0.3 nM Englerin A
Experimental: TRPC5 is a type of non-selective cation channel with permeability to calcium ions. […] Fluo-4 AM fluorescence dye was used to indirectly reflect the effect of the compound on TRPC5 channel by detecting intracellular Ca^2+ in TRPC5-HEK 293 cells.
• Revival solution: 100% high glucose DMEM • Selection medium: high glucose DMEM+10% FBS+1% P/S+1% HEPES+Blasticidin (5 μg/mL)+Hygromycine (50 μg/mL) • Induction medium: high glucose DMEM+10% FBS+1% P/S+1% HEPES+Doxycycline (1 μg/mL)
(§1) 14 hours before the real-time fluorescence experiment, cells were washed with PBS and digested with trypsin-EDTA. Cells were diluted to 200,000 cells/mL with induction medium and seeded onto a 96-well black wall bottom transparent plate coated with poly-D-lysine (PDL) (stock solution of 10 mg/mL, final concentration of 10 μg/mL) at 100 μL/well, i.e., 20,000 cells/well.
500 mL of external solution for detecting TRPC5 calcium signals: 4.0908 g of NaCl, 0.1864 g of KCl, 0.111 g of CaCl2, 0.0476 g of MgCl2, 0.9 g of glucose, 1.1915 g of HEPES (2-[4-(2-hydroxyethyl)piperazin-1-yl]ethanesulfonic acid).
Calcium fluorescent dye: an external solution for detecting TRPC5 calcium signals containing Fluo-4 with a final concentration of 4 μM (containing 0.5% BSA)
Positive inhibitor concentration: 100 nM
The dose-effect diagram was used to calculate AUC (area under the curve of the curve formed by the calcium flux signal), and the data and the log of the compound concentration were collected. The IC50 value was calculated using log[Inhibitor] vs. response Variable slope.
TRPC5 is a type of non-selective cation channel with permeability to calcium ions. […] Fluo-4 AM fluorescence dye was used to indirectly reflect the effect of the compound on TRPC5 channel by detecting intracellular […] in TRPC5-HEK 293 cells.
1. Cell culture 1.1 Revival of TRPC5-HEK 293 cells • Revival solution: 100% high glucose DMEM • Selection medium: high glucose DMEM+10% FBS+1% P/S+1% HEPES+Blasticidin (5 μg/mL)+Hygromycine (50 μg/mL) • Induction medium: high glucose DMEM+10% FBS+1% P/S+1% HEPES+Doxycycline (1 μg/mL)
as §1, with “trypsin-EDTA (TE).” for “trypsin-EDTA.”

[2] = Liver microsome half-life assay, human; format: in vitro ADME; conditions: for half-life: human, liver microsomes, 1 mg/mL liver microsomal protein, 37° C., read-out: Liver microsome T½ (min) Human; for metabolic stability in liver microsomes: compared with compounds C001 and C002, statement on Table 12, species not specified
Experimental: (§2) The in vitro metabolic stability of the compounds of the present disclosure was determined using warm incubation method of liver microsomes in various species. A proper amount of test compound was added to the liver microsomal reaction system (1 mg/mL liver microsomal protein, 25 U/mL glucose-6-phosphate dehydrogenase, 1 mM NADP, 6 mM D-glucose 6-phosphate, 5 mM MgCl2), and the reaction was started by warm incubation in a water bath at 37° C., then 100 μL of the reaction mixture at each time point was added to a centrifuge tube containing 400 μL of internal standard working solution precooled at 0° C. (containing a solution of 200 ng/mL dexamethasone, diclofenac, tolbutamide, and labetalol in acetonitrile), then the reaction was terminated, centrifuged at 4° C. and 10,000 g for 10 min, and the supernatant was taken into LC-MS for analysis and detection to obtain in vitro metabolic half-lives of the test compounds in liver microsomes of various species.

[3] = Liver microsome half-life assay, rat; format: in vitro ADME; conditions: liver microsomes, 1 mg/mL liver microsomal protein, 37° C., read-out: Liver microsome T½ (min) Rat
Experimental: as §2

[4] = Liver microsome half-life assay, mouse; format: in vitro ADME; conditions: liver microsomes, 1 mg/mL liver microsomal protein, 37° C., read-out: Liver microsome T½ (min) Mouse
Experimental: as §2

[5] = Liver microsome half-life assay, beagle dog; format: in vitro ADME; conditions: liver microsomes, 1 mg/mL liver microsomal protein, 37° C., read-out: Liver microsome T½ (min) Beagle dog
Experimental: as §2

[6] = Liver microsome half-life assay, monkey; format: in vitro ADME; conditions: liver microsomes, 1 mg/mL liver microsomal protein, 37° C., read-out: Liver microsome T½ (min) Monkey
Experimental: as §2

[7] = Pharmacokinetic study in mice in vivo (gavage and tail vein injection); conditions: mouse, plasma; for AUC(0-t) / Cmax: dose 1 mg/kg; for bioavailability: 1 mg/kg, p.o. vs i.v.
Description: […] Mouse plasma was collected at a specific time point after administration, and the concentration of the compound in plasma was detected by LC-MS/MS (AB SCIEX Qtrap4500). PK parameters of each compound (WinNonlin V5.2, Pharsight) were statistically analyzed and calculated to reflect the pharmacokinetic properties of the compounds of the present disclosure in mice in vivo.

[8] = Table 11, read-out: TRPC5 inhibitory activity, IC50

TRPC5 channel, sequence (Q9UL62 whole entry): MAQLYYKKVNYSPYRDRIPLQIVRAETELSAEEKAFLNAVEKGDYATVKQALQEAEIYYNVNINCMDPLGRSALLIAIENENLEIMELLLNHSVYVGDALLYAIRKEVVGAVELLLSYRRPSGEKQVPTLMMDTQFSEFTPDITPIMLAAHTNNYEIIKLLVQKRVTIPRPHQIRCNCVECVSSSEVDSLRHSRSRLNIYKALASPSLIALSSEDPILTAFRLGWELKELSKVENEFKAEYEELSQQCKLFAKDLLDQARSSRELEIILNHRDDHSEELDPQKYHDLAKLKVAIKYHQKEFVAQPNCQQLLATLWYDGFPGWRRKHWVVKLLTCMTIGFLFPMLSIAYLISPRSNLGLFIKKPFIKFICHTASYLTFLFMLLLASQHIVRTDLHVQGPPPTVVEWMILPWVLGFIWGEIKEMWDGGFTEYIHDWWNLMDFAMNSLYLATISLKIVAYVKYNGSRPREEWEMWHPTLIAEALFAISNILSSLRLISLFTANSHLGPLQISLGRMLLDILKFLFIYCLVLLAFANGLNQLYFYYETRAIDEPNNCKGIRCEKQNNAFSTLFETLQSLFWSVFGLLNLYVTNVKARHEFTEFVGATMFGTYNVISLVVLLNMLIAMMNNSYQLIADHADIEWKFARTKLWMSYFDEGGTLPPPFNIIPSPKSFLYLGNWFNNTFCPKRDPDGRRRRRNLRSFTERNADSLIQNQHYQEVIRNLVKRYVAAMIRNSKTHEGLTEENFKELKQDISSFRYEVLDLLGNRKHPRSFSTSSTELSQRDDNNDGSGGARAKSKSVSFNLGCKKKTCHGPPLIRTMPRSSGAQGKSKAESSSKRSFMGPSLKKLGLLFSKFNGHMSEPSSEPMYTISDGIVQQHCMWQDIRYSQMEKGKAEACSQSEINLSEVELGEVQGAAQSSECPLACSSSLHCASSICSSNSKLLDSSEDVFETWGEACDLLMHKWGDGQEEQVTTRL

| SMILES | half-life [2] [min] | half-life [3] [min] | half-life [4] [min] | IC50 [1, 8] [nM] | AUC(0-t) ([7]; iv) [ng·h/mL] | Cmax ([7]; iv) [ng/mL] | bioavailability ([7]; po) [%] | AUC(0-t) ([7]; po) [ng·h/mL] | Cmax ([7]; po) [ng/mL] | other results |
| --- | --- | --- | --- | --- | --- | --- | --- | --- | --- | --- |
| O=C(c1ccc(F)cc1C(F)(F)F)c1cnc2n1CCN(c1cnn(COP(=O)(O)O)c(=O)c1Cl)C2 [Compound 1, (5-chloro-4-(3-(4-fluoro-2-(trifluoromethyl)benzoyl)-5,6-dihydroimidazo[1,2-a]pyrazin-7(8H)-yl)-6-oxopyridazin-1(6H)-yl)methyl dihydrogen phosphate] | – | – | – | – | – | – | – | – | – | inhibitory activity against TRPC5 channels [1]: no inhibitory activity; IC50 ([1]; Table 1, read-out: TRPC5 inhibitory activity, IC50): > 10000 nM |
| O=c1[nH]ncc(N2CCc3c(ncn3Cc3ccccc3C(F)(F)F)C2)c1Cl [Compound C001, reference compound] | 54 | 5 | 60 | – | – | – | – | – | – | half-life [5]: 15 min; half-life [6]: 38 min |
| O=c1[nH]ncc(N2CCc3c(ncn3Cc3ccc(F)cc3C(F)(F)F)C2)c1Cl [Compound C002, reference compound] | 90 | 34 | 115 | – | – | – | – | – | – | half-life [5]: 102 min; half-life [6]: 15 min |

The next lines start with results.

| half-life [2] [min] | half-life [3] [min] | half-life [4] [min] | IC50 [1, 8] [nM] | AUC(0-t) ([7]; iv) [ng·h/mL] | Cmax ([7]; iv) [ng/mL] | bioavailability ([7]; po) [%] | AUC(0-t) ([7]; po) [ng·h/mL] | Cmax ([7]; po) [ng/mL] | SMILES | other results |
| --- | --- | --- | --- | --- | --- | --- | --- | --- | --- | --- |
| 173 | 20 | 154 | 10.8 | 225 | 225 | 80.6 | 84.3 | 84.3 | O=c1[nH]ncc(N2CCn3c(Cc4ccccc4C(F)(F)F)cnc3C2)c1Cl [Compound L001, 4-chloro-5-(3-(2-(trifluoromethyl)benzyl)-5,6-dihydroimidazo[1,2-a]pyrazin-7(8H)-yl)pyridazin-3(2H)-one] | metabolic stability in liver microsomes [2]: significantly improved |
| 262 | – | 188 | 6.52 | 1450 | 833 | 43.2 | 625 | 248 | O=c1[nH]ncc(N2CCn3c(Cc4ccc(F)cc4C(F)(F)F)cnc3C2)c1Cl [Compound L002, 4-chloro-5-(3-(4-fluoro-2-(trifluoromethyl)benzyl)-5,6-dihydroimidazo[1,2-a]pyrazin-7(8H)-yl)pyridazin-3(2H)-one] | metabolic stability in liver microsomes [2]: significantly improved |
| – | – | – | 7.37 | – | – | – | – | – | O=c1[nH]ncc(N2CCn3c(Cc4ccc(F)cc4C(F)F)cnc3C2)c1Cl [Compound L007] | – |
| – | – | – | 39.4 | – | – | – | – | – | O=c1[nH]ncc(N2CCn3c(Cc4ccc(F)cc4Cl)cnc3C2)c1Cl [Compound L009] | – |
| 148 | – | 131 | 14.6 | – | – | – | – | – | O=c1[nH]ncc(N2CCn3c(Cc4cc(F)ccc4C(F)(F)F)cnc3C2)c1Cl [Compound L013, 4-chloro-5-(3-(5-fluoro-2-(trifluoromethyl)benzyl)-5,6-dihydroimidazo[1,2-a]pyrazin-7(8H)-yl)pyridazin-3(2H)-one] | – |
| 7590 | – | 167 | 18.2 | 663 | 762 | 161 | 1070 | 301 | N#Cc1ccc(Cc2cnc3n2CCN(c2cn[nH]c(=O)c2Cl)C3)c(C(F)(F)F)c1 [Compound L014, 4-((7-(5-chloro-6-oxo-1,6-dihydropyridazin-4-yl)-5,6,7,8-tetrahydroimidazo[1,2-a]pyrazin-3-yl)methyl)-3-(trifluoromethyl)benzonitrile] | – |
| – | – | – | 24 | – | – | – | – | – | N#Cc1ccc(C(=O)c2cnc3n2CCN(c2cn[nH]c(=O)c2Cl)C3)c(C(F)(F)F)c1 [Compound L019, 4-(7-(5-chloro-6-oxo-1,6-dihydropyridazin-4-yl)-5,6,7,8-tetrahydroimidazo[1,2-a]pyrazine-3-carbonyl)-3-(trifluoromethyl)benzonitrile] | – |

— patent US20240317755A1, “HETEROCYCLIC COMPOUND, AND INTERMEDIATE THEREOF, PREPARATION METHOD THEREFOR AND USE THEREOF” (WUHAN LL SCIENCE AND TECHNOLOGY DEVELOPMENT CO., LTD., priority 2021, published 2024)
